Our source for the IC50 values is patent publication US20230348418A1, “ISOINDOLINONE COMPOUNDS” (Monte Rosa Therapeutics, Inc., priority 2021, published 2023).

Read-outs that look alike come from different tables or passages of the source.

Experiment [1] deals with CRBN-DDB1 (Homo sapiens, UniProt Q96SW2). The experiment is described as follows: HTRF binding of compounds to CRBN. On the procedure:
Compound activity was monitored in a Homogenous Time-Resolved Fluorescence (HTRF) assay using 1-[5-({2-[2-(2-{[2-(2,6-dioxopiperidin-3-yl)-1,3-dioxo-2,3-dihydro-1H-isoindol-4-yl]oxy}acetamido)ethoxy]ethyl}carbamoyl)pentyl]-3,3-dimethyl-2-[(1E,3E)-5-[(2E)-1,3,3-trimethyl-5-sulfo-2,3-dihydro-1H-indol-2-ylidene]penta-1,3-dien-1-yl]-3H-indol-1-ium-5-sulfonate as a fluorescent probe. […] Compounds were stored in dry, ambient temperatures at 10 mM. A 10-point, 1:3 dilution series was prepared from 10 mM stock concentrations in Echo-compatible LDV plates. 10 nL of each compound dilution series was dispensed into assays wells using an Echo 650 (Labcyte inc. USA). […] The assay was then allowed to incubate for 30 min at ambient temperature after transferring compound. […] Analysis and IC50 values were derived using KNIME analytics (KNIME Zurich) transformation and fitting within Collaborative Drug Discovery (Collaborative Drug Discovery USA). Ki was derived from the geometric mean of the IC50 values using the Cheng-Prustoff transformation.
(In general: TR-FRET usually uses a lanthanide donor and a delayed reading to cut background.)

The target in experiment [2] is T1, Full length wild-type cereblon CRBN (Homo sapiens, UniProt Q96SW2).
T1 construct: Full length wild-type cereblon CRBN (80.0 nM, 10 μL) was incubated in assay buffer
The experiment is described as follows: Fluorescence polarization (FP) assay, cereblon binding. The source says: Compound activity was monitored in a fluorescence polarization (FP) homogeneous assay using 1-[5-({2-[2-(2-{[2-(2,6-dioxopiperidin-3-yl)-1,3-dioxo-2,3-dihydro-1H-isoindol-4-yl]oxy}acetamido)ethoxy]ethyl}carbamoyl)pentyl]-3,3-dimethyl-2-[(1E,3E)-5-[(2E)-1,3,3-trimethyl-5-sulfo-2,3-dihydro-1H-indol-2-ylidene]penta-1,3-dien-1-yl]-3H-indol-1-ium-5-sulfonate as a fluorescent probe. Unless otherwise stated, all reagents were purchased from Sigma Aldrich. […] Full length wild-type cereblon CRBN (80.0 nM, 10 μL) was incubated in assay buffer containing 20 mM HEPES (pH 8.0), […], 0.5 mM TCEP and 0.05% Tween 20 in the presence or absence of compound (300 nL). Inhibitors were stored as 10 mM DMSO stocks in an inert environment (low humidity, dark, low oxygen, room temperature) using the Storage Pod System. […] Following incubation at room temperature for 30 min, the assay was initiated by dispensing the probe to a final concentration of […] (2.5 nL of a 20 μM stock) using the Echo E5XX. […] The FP signal was subsequently normalized to the no-compound control (i.e., DMSO). Analysis and IC50 values were derived using Dotmatics (Dotmatics UK) software.

[3] abbreviates: read-out: HTRF Class (Cereblon binding, HTRF IC50).
The mark [4] stands for this setting: bounds stated in the text lists b2059-b2061, read-out: IC50 value.
Setting [5] is: cereblon binding, class code, read-out: rFP IC50.

Chain of CRBN-DDB1 (Q96SW2 whole entry): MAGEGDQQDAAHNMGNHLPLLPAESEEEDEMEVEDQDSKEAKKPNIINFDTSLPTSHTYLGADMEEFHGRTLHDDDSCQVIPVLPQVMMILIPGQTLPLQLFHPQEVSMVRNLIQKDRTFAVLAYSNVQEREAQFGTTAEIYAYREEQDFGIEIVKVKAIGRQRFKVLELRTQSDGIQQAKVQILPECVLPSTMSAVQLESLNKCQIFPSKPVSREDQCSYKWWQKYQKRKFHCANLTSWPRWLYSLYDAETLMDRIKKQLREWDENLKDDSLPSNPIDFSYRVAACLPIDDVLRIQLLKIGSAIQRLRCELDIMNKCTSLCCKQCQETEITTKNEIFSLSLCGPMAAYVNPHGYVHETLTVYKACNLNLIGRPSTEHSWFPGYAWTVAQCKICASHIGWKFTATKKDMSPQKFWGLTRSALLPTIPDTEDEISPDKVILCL
Chain of CRBN-DDB1 (Q16531 whole entry partner): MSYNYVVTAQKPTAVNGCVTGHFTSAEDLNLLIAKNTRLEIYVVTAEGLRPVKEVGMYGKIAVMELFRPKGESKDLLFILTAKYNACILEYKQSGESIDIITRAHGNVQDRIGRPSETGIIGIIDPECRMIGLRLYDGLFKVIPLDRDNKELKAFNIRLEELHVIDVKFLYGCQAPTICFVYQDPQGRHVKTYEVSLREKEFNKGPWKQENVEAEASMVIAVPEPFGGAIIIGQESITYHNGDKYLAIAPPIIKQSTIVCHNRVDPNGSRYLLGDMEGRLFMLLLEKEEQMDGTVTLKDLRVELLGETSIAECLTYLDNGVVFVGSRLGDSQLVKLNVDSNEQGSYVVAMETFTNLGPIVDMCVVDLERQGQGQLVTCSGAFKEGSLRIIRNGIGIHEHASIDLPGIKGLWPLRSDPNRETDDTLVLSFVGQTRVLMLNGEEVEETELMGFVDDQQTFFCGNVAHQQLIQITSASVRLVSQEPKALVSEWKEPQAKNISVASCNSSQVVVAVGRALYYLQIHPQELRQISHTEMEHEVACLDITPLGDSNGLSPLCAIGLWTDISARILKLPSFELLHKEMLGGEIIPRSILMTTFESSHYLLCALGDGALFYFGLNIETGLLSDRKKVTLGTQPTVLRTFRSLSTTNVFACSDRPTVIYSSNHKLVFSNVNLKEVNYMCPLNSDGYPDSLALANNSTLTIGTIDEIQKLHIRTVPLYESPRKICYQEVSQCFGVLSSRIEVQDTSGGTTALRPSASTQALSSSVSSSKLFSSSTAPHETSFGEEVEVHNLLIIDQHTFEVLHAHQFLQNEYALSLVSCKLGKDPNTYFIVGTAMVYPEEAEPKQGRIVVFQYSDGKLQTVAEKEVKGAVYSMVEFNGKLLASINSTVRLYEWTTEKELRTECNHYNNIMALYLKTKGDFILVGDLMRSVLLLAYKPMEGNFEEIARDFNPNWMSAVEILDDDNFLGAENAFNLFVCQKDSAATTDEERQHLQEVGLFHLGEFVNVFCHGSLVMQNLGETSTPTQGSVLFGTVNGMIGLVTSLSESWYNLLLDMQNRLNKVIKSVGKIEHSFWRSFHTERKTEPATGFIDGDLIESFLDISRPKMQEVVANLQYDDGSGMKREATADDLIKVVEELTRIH
T1 sequence (Q96SW2 whole entry): as the sequence (Q96SW2 whole entry) above

On to `Cc1cc(NC(=O)OCc2ccc3c(c2)C(=O)N(C2CCC(=O)NC2=O)C3)ncc1N1CCCC1` (centres unmarked) [Compound 194, (2-(2,6-dioxopiperidin-3-yl)-3-oxoisoindolin-5-yl)methyl (4-methyl-5-(pyrrolidin-1-yl)pyridin-2-yl) carbamate], for which, in experiment [1] (setting [3]), the IC50 lay within 100 to 1000 nM.

For the molecule `O=C1CCC(N2Cc3ccc(COC(=O)NC45CC(N6CCOCC6)(C4)C5)cc3C2=O)C(=O)N1` (centres unmarked) [Compound 215, (2-(2,6-dioxopiperidin-3-yl)-3-oxoisoindolin-5-yl)methyl (3-morpholinobicyclo[1.1.1]pentan-1-yl)carbamate], the IC50 in experiment [1] (setting [3]) lay in the range of 100 to 1000 nM. As to `Cc1cc2c(c(NC(=O)OCc3ccc4c(c3)C(=O)N(C3CCC(=O)NC3=O)C4)c1)OCC2` (centres unmarked) [Compound 182], in experiment [1], the IC50 fell in the range of 100 to 1000 nM.

For the molecule `Cc1cc(F)c(NC(=O)OCc2ccc3c(c2)C(=O)N(C2CCC(=O)NC2=O)C3)cc1OC(F)F` (centres unmarked) [Compound 201, (2-(2,6-dioxopiperidin-3-yl)-3-oxoisoindolin-5-yl) methyl (5-(difluoromethoxy)-2-fluoro-4-methylphenyl)carbamate], the IC50 in experiment [1] (setting [3]) was in the range of 100 to 1000 nM. `O=C1CCC(N2Cc3ccc(COC(=O)Nc4cccc5c4OCC5)cc3C2=O)C(=O)N1` (centres unmarked) [Compound 173] returned an IC50 in experiment [1] of 100 to 1000 nM. As to `O=C1CCC(N2Cc3ccc(COC(=O)NC45CC(C4)C5)cc3C2=O)C(=O)N1` (centres unmarked) [Compound 193, (2-(2,6-dioxopiperidin-3-yl)-3-oxoisoindolin-5-yl)methyl bicyclo[1.1.1]pentan-1-ylcarbamate], in experiment [1] (setting [3]), the IC50 lay in the range of 100 to 1000 nM. Still for that read-out and setting: then `Cc1cc(F)c(NC(=O)OCc2ccc3c(c2)C(=O)N(C2CCC(=O)NC2=O)C3)c(F)c1` (centres unmarked) [Compound 166, (2-(2,6-dioxopiperidin-3-yl)-3-oxoisoindolin-5-yl)methyl (2,6-difluoro-4-methylphenyl)carbamate], with less than 100 nM; and `O=C1CCC(N2Cc3ccc(COC(=O)Nc4cc(Cl)ccc4F)cc3C2=O)C(=O)N1` (centres unmarked) [Compound 163, (2-(2,6-dioxopiperidin-3-yl)-3-oxoisoindolin-5-yl)methyl (5-chloro-2-fluorophenyl)carbamate], with 100 to 1000 nM.

Molecule `O=C1CCC(N2Cc3ccc(COC(=O)NC4CN(c5ccccc5)C4)cc3C2=O)C(=O)N1` (centres unmarked) [Compound 167] yielded a half-maximal inhibitory concentration (IC50) in experiment [1] of less than 100 nM. `O=C1CCC(N2Cc3ccc(COC(=O)Nc4cc(C5CC5)ccc4F)cc3C2=O)C(=O)N1` (centres unmarked) [Compound 207, (2-(2,6-dioxopiperidin-3-yl)-3-oxoisoindolin-5-yl)methyl (5-cyclopropyl-2-fluorophenyl) carbamate]: the IC50 in experiment [1] (setting [3]) was less than 100 nM.

The molecule `Cc1cc(NC(=O)OCc2ccc3c(c2)C(=O)N(C2CCC(=O)NC2=O)C3)cc(C#N)c1C` (centres unmarked) [Compound 186] gave an IC50 in experiment [1] of 100 to 1000 nM. As to `Cc1cc(F)c(NC(=O)OCc2ccc3c(c2)C(=O)N(C2CCC(=O)NC2=O)C3)cc1OC(C)C` (centres unmarked) [Compound 230, (2-(2,6-dioxopiperidin-3-yl)-3-oxoisoindolin-5-yl)methyl (2-fluoro-5-isopropoxy-4-methylphenyl)carbamate], the IC50 in experiment [1] (setting [3]) was less than 100 nM. As for `O=C1CCC(N2Cc3ccc(COC(=O)Nc4ccc(N5CC6CCC(C5)O6)nc4)cc3C2=O)C(=O)N1` (centres unmarked) [Compound 65], in experiment [2] (setting [4]), the IC50 was less than 1100 nM.

`O=C1CCC(N2Cc3ccc(COC(=O)Nc4ccc(N5CCCCC5)nn4)cc3C2=O)C(=O)N1` (centres unmarked) [Compound 75]: in experiment [2] (setting [4]), the IC50 was less than 1100 nM. Same read-out and setting: the figure for `O=C1CCC(N2Cc3ccc(COC(=O)Nc4cnc(N5CCCCC5)cn4)cc3C2=O)C(=O)N1` (centres unmarked) [Compound 94] is less than 1100 nM.

Regarding `O=C1CCC(N2Cc3ccc(COC(=O)Nc4ccc5c(c4)OCCC5)cc3C2=O)C(=O)N1` (centres unmarked) [Compound 92], the IC50 in experiment [2] (setting [4]) was less than 1700 nM; in experiment [2] (setting [5]) it was 500 to 1100 nM. The like results for `O=C1CCC(N2Cc3ccc(COC(=O)Nc4cnc(N5CCCCC5)c(F)c4)cc3C2=O)C(=O)N1` (centres unmarked) [Compound 72] were, in that order, less than 1700 nM and 500 to 1100 nM. For the molecule `O=C1CCC(N2Cc3ccc(COC(=O)Nc4cc(OCCN5CCOCC5)cc(OC(F)F)c4)cc3C2=O)C(=O)N1` (centres unmarked) [Compound 96], the values for the IC50 in experiment [2] (setting [4]) and in experiment [2] (setting [5]) were less than 1700 nM and 1100 to 1700 nM, respectively. Turning to `COc1cc(Cl)ccc1NC(=O)OCc1ccc2c(c1)C(=O)N(C1CCC(=O)NC1=O)C2` (centres unmarked) [Compound 38], the IC50 in experiment [2] (setting [4]) is less than 1700 nM; in experiment [2] (setting [5]) it was 500 to 1100 nM.

For `O=C1CCC(N2Cc3ccc(COC(=O)Nc4cc(C(F)(F)F)ns4)cc3C2=O)C(=O)N1` (centres unmarked) [Compound 139], the IC50 was less than 1100 nM in experiment [2] (IC50 value, bounds stated in the text lists b2059-b2061) and 500 to 1100 nM in experiment [2] (rFP IC50 [nM], cereblon binding, class code).

As to `Cc1cc(F)c(NC(=O)OCc2ccc3c(c2)C(=O)N(C2CCC(=O)NC2=O)C3)cc1Cl` (centres unmarked) [Compound 141, (2-(2,6-dioxopiperidin-3-yl)-3-oxoisoindolin-5-yl)methyl (5-chloro-2-fluoro-4-methylphenyl)carbamate], the IC50 in experiment [2] (setting [4]) was less than 1100 nM; in experiment [2] (setting [5]), 500 to 1100 nM. Take `O=C1CCC(N2Cc3ccc(COC(=O)NC4CCN(c5ccccn5)CC4)cc3C2=O)C(=O)N1` (centres unmarked) [Compound 35]: the IC50 in experiment [2] (setting [4]) was less than 1100 nM. `O=C1CCC(N2Cc3ccc(COC(=O)Nc4ccc5c(c4)OC(F)(F)O5)cc3C2=O)C(=O)N1` (centres unmarked) [Compound 79]: the IC50 in experiment [2] (setting [4]) was less than 1700 nM; in experiment [2] (setting [5]) it was 1100 to 1700 nM.

Regarding `Cc1cc(C)c(F)c(NC(=O)OCc2ccc3c(c2)C(=O)N(C2CCC(=O)NC2=O)C3)c1` (centres unmarked) [Compound 122, (2-(2,6-dioxopiperidin-3-yl)-3-oxoisoindolin-5-yl)methyl (2-fluoro-3,5-dimethylphenyl)carbamate], the IC50 in experiment [2] (setting [4]) is less than 1100 nM. As to `O=C1CCC(N2Cc3ccc(COC(=O)Nc4ccc(N5CCOCC5)nc4)cc3C2=O)C(=O)N1` (centres unmarked) [Compound 76], the IC50 in experiment [2] (setting [4]) is less than 1700 nM; in experiment [2] (setting [5]), 500 to 1100 nM. As to `CCc1cc(NC(=O)OCc2ccc3c(c2)C(=O)N(C2CCC(=O)NC2=O)C3)cc(C)n1` (centres unmarked) [Compound 71], the values for the IC50 in experiment [2] (setting [4]) and in experiment [2] (setting [5]) were less than 1700 nM and 1100 to 1700 nM, respectively.

On to `O=C1CCC(N2Cc3ccc(COC(=O)Nc4ccc(-c5ccccc5F)nc4)cc3C2=O)C(=O)N1` (centres unmarked) [Compound 84], for which the IC50 in experiment [2] (setting [4]) was less than 1100 nM. On to `CC1(C)COc2cc(NC(=O)OCc3ccc4c(c3)C(=O)N(C3CCC(=O)NC3=O)C4)ccc21` (centres unmarked) [Compound 83], for which the IC50 in experiment [2] (setting [4]) is less than 1700 nM; in experiment [2] (setting [5]) it was 500 to 1100 nM. Turning to `O=C1CCC(N2Cc3ccc(COC(=O)Nc4cnc5c(c4)CCC5)cc3C2=O)C(=O)N1` (centres unmarked) [Compound 53], the IC50 in experiment [2] (setting [4]) was less than 1700 nM; in experiment [2] (setting [5]), 500 to 1100 nM.

For `CCc1cc(NC(=O)OCc2ccc3c(c2)C(=O)N(C2CCC(=O)NC2=O)C3)cnc1C` (centres unmarked) [Compound 55], the IC50 was less than 1700 nM in experiment [2] (setting [4]) and 500 to 1100 nM in experiment [2] (setting [5]). For `Cc1ccc(NC(=O)OCc2ccc3c(c2)C(=O)N(C2CCC(=O)NC2=O)C3)cc1F` (centres unmarked) [Compound 133, (2-(2,6-dioxopiperidin-3-yl)-3-oxoisoindolin-5-yl)methyl (3-fluoro-4-methylphenyl)carbamate], the IC50 is less than 1100 nM in experiment [2] (setting [4]) and 500 to 1100 nM in experiment [2] (setting [5]). The like results for `CC(C)(C)C12CC(NC(=O)OCc3ccc4c(c3)C(=O)N(C3CCC(=O)NC3=O)C4)(C1)C2` (centres unmarked) [Compound 120, (2-(2,6-dioxopiperidin-3-yl)-3-oxoisoindolin-5-yl)methyl (3-(tert-butyl)bicyclo[1.1.1]pentan-1-yl)carbamate] were, in that order, less than 1100 nM and 500 to 1100 nM. With `O=C1CCC(N2Cc3ccc(COC(=O)Nc4ccc(C5COC5)cc4)cc3C2=O)C(=O)N1` (centres unmarked) [Compound 81], in experiment [2] (setting [4]), the IC50 was less than 1100 nM.

A word on the IC50: it is the concentration needed to halve the response being measured.
